According to the supplement of paper PMC10307832:

How the values were obtained:
Assay in all cases: relative viability (nuclei count vs DMSO), 5 days (fraction); higher = more cells survive
[1] = compound: CC1=NC=CC(=C1)C2=CC=C(C=C2)CC(=O)NC3=CC=C(C=C3)C4=CN=CC=C4 [Wnt-C59] + Nc1ncn([C@H]2C[C@H](O)[C@@H](CO)O2)c(=O)n1 [Decitabine] (partner 2 µM)
Summary of the method: (§1)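 Each reported value is a median over duplicate plates. It expresses relative viability: treated-well nuclei count divided by vehicle-well nuclei count. Lung cancer cell lines in 1536-well plates were dosed by pin tool a day after seeding, alone with one drug or with a fixed anchor-drug dose plus five library-drug doses (not always all listed) in √10 steps, and nuclei were counted after 5 days.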

[2] = compound: CS(=O)(=O)CCNCc1ccc(-c2ccc3ncnc(Nc4ccc(OCc5cccc(F)c5)c(Cl)c4)c3c2)o1 [Lapatinib] + CS(=O)(=O)N1CCN(Cc2cc3nc(-c4cccc5[nH]ncc45)nc(N4CCOCC4)c3s2)CC1 [Pictilisib] (partner 1 µM)
Summary of the method: as §1

[3] = compound: CS(=O)(=O)CCNCc1ccc(-c2ccc3ncnc(Nc4ccc(OCc5cccc(F)c5)c(Cl)c4)c3c2)o1 [Lapatinib] + Cc1cc(Nc2cc(N3CCN(C)CC3)nc(Sc3ccc(NC(=O)C4CC4)cc3)n2)n[nH]1 [Tozasertib] (partner 0.1 µM)
Summary of the method: as §1

[4] = compound: CS(=O)(=O)CCNCc1ccc(-c2ccc3ncnc(Nc4ccc(OCc5cccc(F)c5)c(Cl)c4)c3c2)o1 [Lapatinib] + O=C(c1cc(Cc2n[nH]c(=O)c3ccccc23)ccc1F)N1CCN(C(=O)C2CC2)CC1 [Olaparib] (partner 8 µM)
Summary of the method: as §1

Cell Line	relative viability ([1]; first compound 0.001 µM)	relative viability ([1]; first compound 0.01 µM)	relative viability ([1]; first compound 0.03162 µM)	relative viability ([1]; first compound 0.1 µM)	relative viability ([2]; first compound 0.02 µM)	relative viability ([2]; first compound 0.06325 µM)	relative viability ([2]; first compound 0.2 µM)	relative viability ([2]; first compound 0.6325 µM)	relative viability ([2]; first compound 2 µM)	relative viability ([3]; first compound 0.02 µM)	relative viability ([3]; first compound 0.06325 µM)	relative viability ([3]; first compound 0.2 µM)	relative viability ([3]; first compound 0.6325 µM)	relative viability ([3]; first compound 2 µM)	relative viability ([4]; first compound 0.02 µM)	relative viability ([4]; first compound 0.06325 µM)	relative viability ([4]; first compound 0.2 µM)	relative viability ([4]; first compound 0.6325 µM)	relative viability ([4]; first compound 2 µM)
NCI-H1651	0.671	0.675	0.613	0.597	0.561	0.472	0.526	0.613	0.596	0.541	0.622	0.508	0.443	0.325	0.193	0.183	0.181	0.197	0.178
NCI-H1703					0.231	0.213	0.228	0.32	0.275						0.312	0.489	0.392	0.595	0.383
NCI-H522	0.707	0.739	0.782	0.666							0.433	0.523	0.561	0.513		0.467	0.575	0.572	0.518
HCC-366	0.317	0.427	0.342	0.387	0.133	0.0868	0.131	0.135	0.0768		0.0794	0.0593	0.0794	0.0545		0.411	0.38	0.38	0.251
SK-LU-1	0.657	0.675	0.694	0.657		0.504	0.634	0.754	0.57	0.32	0.306	0.3	0.29	0.235	0.298	0.449	0.565	0.555	0.433
NCI-H520	0.48	0.532	0.537	0.504	0.308	0.285	0.269	0.332	0.348	0.511	0.393	0.41	0.543	0.405	0.349	0.278	0.363	0.326	0.366
NCI-H1437	0.584	0.562	0.559	0.614	0.5	0.314	0.386	0.482	0.422	0.388	0.411	0.378	0.347	0.367	0.62	0.626	0.62	0.609	0.507
NCI-H460	0.503	0.488	0.594	0.465	0.057	0.276	0.303	0.355	0.251	0.0815	0.298	0.0669	0.0896	0.06		0.406	0.421	0.41	0.262
LK-2	0.319	0.329	0.319	0.323			0.424	0.615	0.531			0.174	0.146	0.19	0.598		0.78	0.702	0.859
NCI-H358	0.223	0.207	0.295	0.213	0.334		0.301	0.304	0.309	0.0946	0.0876	0.0913	0.078	0.0817	0.535	0.476	0.385	0.377	0.205
NCI-H2085	0.623	0.571	0.494	0.601	0.389	0.454	0.553	0.54	0.45		0.748	0.73	0.532	0.337	0.744	0.795	0.8	0.711	0.581
NCI-H2405	0.793	0.756	0.786	0.656		0.412	0.428	0.398	0.397	0.665	0.694	0.807	0.759	0.561		0.763		0.854	0.754
NCI-H1666	0.753	0.73	0.732	0.767	0.33	0.327	0.39	0.329	0.2	0.598	0.577	0.573	0.453	0.36	0.761	0.776	0.743	0.703	0.719
NCI-H322M	0.729	0.655	0.666	0.63	0.555	0.31	0.483	0.504	0.404	0.437	0.457	0.395	0.477	0.343	0.756	0.711	0.836	0.818	0.763
NCI-H1563					0.592	0.643	0.6	0.725	0.693										
IA-LM					0.227	0.297	0.223	0.21	0.222						0.789	0.855	0.778	0.886	0.843
CAL-12T						0.415	0.31	0.528	0.351		0.274	0.333	0.273	0.122	0.703	0.745	0.71	0.599	0.556
NCI-H1395	0.743	0.76	0.764	0.704		0.66	0.527	0.696	0.583	0.716	0.774	0.701	0.683	0.677		0.455	0.459	0.522	0.415
NCI-H3122	0.453	0.477	0.476	0.385	0.564	0.481	0.636	0.603	0.751		0.366	0.479	0.341	0.349	0.582	0.576	0.595	0.627	0.558
HARA	0.604	0.455	0.543	0.587	0.418	0.261	0.527	0.33	0.288		0.0893	0.0933	0.0794	0.119	0.712	0.552	0.957	0.618	0.402
EBC-1					0.467	0.368	0.364	0.386	0.256						0.736	0.78	0.703	0.759	0.489

Cell Line	relative viability ([1]; first compound 0.001 µM)	relative viability ([1]; first compound 0.01 µM)	relative viability ([1]; first compound 0.03162 µM)	relative viability ([1]; first compound 0.1 µM)	relative viability ([2]; first compound 0.02 µM)	relative viability ([2]; first compound 0.06325 µM)	relative viability ([2]; first compound 0.2 µM)	relative viability ([2]; first compound 0.6325 µM)	relative viability ([2]; first compound 2 µM)	relative viability ([3]; first compound 0.02 µM)	relative viability ([3]; first compound 0.06325 µM)	relative viability ([3]; first compound 0.2 µM)	relative viability ([3]; first compound 0.6325 µM)	relative viability ([3]; first compound 2 µM)	relative viability ([4]; first compound 0.02 µM)	relative viability ([4]; first compound 0.06325 µM)	relative viability ([4]; first compound 0.2 µM)	relative viability ([4]; first compound 0.6325 µM)	relative viability ([4]; first compound 2 µM)
PC-3 [JPC-3]	0.853	0.847	0.849	0.841		0.687	0.621	0.769	0.512	0.876	0.83	0.909	0.803	0.506		1.09		1.16	0.883
SK-MES-1	0.386	0.403	0.366	0.355	0.36	0.3	0.235	0.257	0.199	0.894	0.996	1.07	0.943	0.495	0.726	0.699	0.569	0.464	0.221
Calu-6					0.865	0.838	0.958	1.08	0.978						0.612	0.555	0.589	0.525	0.447
NCI-H838	0.459	0.509	0.453	0.402	0.48	0.409	0.505	0.449	0.458	0.235	0.257	0.256	0.258	0.221	0.773	0.715	0.771	0.746	0.575
NCI-H2009	0.35	0.442	0.352	0.379	0.357	0.747	0.989	0.853	0.974	0.732	0.633	0.78	0.714	0.492	0.666	0.712	0.694	0.696	0.567
NCI-H647	0.379	0.456	0.393	0.288		0.435		0.364	0.431	0.312	0.197	0.184	0.212	0.183	0.536	0.412	0.506	0.523	0.489
NCI-H1993	0.597	0.594	0.64	0.66	0.715		0.808	0.812	0.977	0.518		0.574	0.518	0.486	0.961		0.901	0.965	0.661
LCLC-97TM1	0.262	0.266	0.227	0.238			0.223	0.227	0.203			0.214	0.229	0.176		0.342	0.417	0.387	0.345
EKVX	0.313		0.417	0.374	0.41	0.322	0.376	0.345	0.177	0.366	0.333	0.448	0.273	0.143		0.694	0.77	0.602	0.337
NCI-H596	0.996	0.918	1.07	1.42	0.39	0.388	0.4	0.415	0.407		0.741	0.856	0.779	0.567		0.578	0.713	0.679	0.567
NCI-H1975	0.419	0.385	0.423	0.38	0.281	0.24	0.309	0.329	0.192	0.583	0.516	0.25	0.178	0.167	0.85	0.771	0.772	0.76	0.503
A549	0.222	0.247	0.247	0.225	0.477	0.401	0.468	0.456	0.506							0.217	0.376	0.364	0.269
HCC-78	0.695	0.754	0.734	0.641		0.265	0.196	0.21	0.208		0.327	0.407	0.377	0.328		0.519	0.926	0.814	0.846
NCI-H1648	0.581	0.405	0.496	0.561						0.361	0.215	0.689	0.361	0.325		0.466	0.588	0.769	0.28
SW 900	0.49	0.43	0.492	0.402							0.35	0.374	0.298	0.276		0.78	0.574	0.864	0.56
NCI-H2228					0.51	0.321	0.567	0.403	0.259	0.25	0.258	0.145	0.205	0.135	0.562	0.537	0.728	0.482	0.436
NCI-H1792	0.636	0.524	0.536	0.506	0.292	0.236	0.294	0.302	0.123								0.377	0.342	0.351
NCI-H2342	0.713	0.787	0.748	0.692						0.495	0.489	0.455	0.538	0.354	0.406	0.405	0.398	0.433	0.348
NCI-H1623										0.423	0.344		0.379	0.154					
NCI-H1299					0.871	0.768	0.859	0.801	0.803						0.952	0.99	0.93	0.967	0.965
